Data from ChEMBL document CHEMBL5442219.

Key:
Settings in all cases: Compound concentration 10 µM
[1] = biological target: D(2) dopamine receptor (Homo sapiens) (UniProt P14416)
Description: PDSP Primary Binding target: DRD2 - Compounds are tested at 10 uM concentration, plate are incubated at room temperature in the dark for 90 minutes. Reaction are stopped by vacuum filtration onto 0.3% polyethyleneimine soaked filter mats using Filtermate harvester. Scintilation cocktail is then melted onto microwave-dried filters on a hot plate and the radio activity is counted in Microbia counter.

[2] = biological target: T1, Alpha-1A adrenergic receptor (Homo sapiens) (UniProt P35348)
T1 sequence (whole entry): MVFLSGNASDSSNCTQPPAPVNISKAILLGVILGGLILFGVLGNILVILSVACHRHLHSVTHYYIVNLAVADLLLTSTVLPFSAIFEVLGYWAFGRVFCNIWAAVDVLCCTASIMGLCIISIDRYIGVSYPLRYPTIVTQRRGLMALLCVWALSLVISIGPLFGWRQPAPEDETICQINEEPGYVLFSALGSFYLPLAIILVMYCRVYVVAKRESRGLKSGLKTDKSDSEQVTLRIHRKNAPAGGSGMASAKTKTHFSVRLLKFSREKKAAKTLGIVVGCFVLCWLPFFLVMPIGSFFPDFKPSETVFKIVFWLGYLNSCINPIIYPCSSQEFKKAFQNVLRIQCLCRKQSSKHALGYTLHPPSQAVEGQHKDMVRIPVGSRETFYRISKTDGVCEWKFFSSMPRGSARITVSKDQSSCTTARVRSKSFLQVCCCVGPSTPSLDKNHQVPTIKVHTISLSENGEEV
Description: PDSP Primary Binding target: ADRA1A - Compounds are tested at 10 uM concentration, plate are incubated at room temperature in the dark for 90 minutes. Reaction are stopped by vacuum filtration onto 0.3% polyethyleneimine soaked filter mats using Filtermate harvester. Scintilation cocktail is then melted onto microwave-dried filters on a hot plate and the radio activity is counted in Microbia counter.

[3] = biological target: Histamine H3 receptor (Homo sapiens) (UniProt Q9Y5N1)
Histamine H3 receptor (Homo sapiens), sequence (Q9Y5N1 whole entry): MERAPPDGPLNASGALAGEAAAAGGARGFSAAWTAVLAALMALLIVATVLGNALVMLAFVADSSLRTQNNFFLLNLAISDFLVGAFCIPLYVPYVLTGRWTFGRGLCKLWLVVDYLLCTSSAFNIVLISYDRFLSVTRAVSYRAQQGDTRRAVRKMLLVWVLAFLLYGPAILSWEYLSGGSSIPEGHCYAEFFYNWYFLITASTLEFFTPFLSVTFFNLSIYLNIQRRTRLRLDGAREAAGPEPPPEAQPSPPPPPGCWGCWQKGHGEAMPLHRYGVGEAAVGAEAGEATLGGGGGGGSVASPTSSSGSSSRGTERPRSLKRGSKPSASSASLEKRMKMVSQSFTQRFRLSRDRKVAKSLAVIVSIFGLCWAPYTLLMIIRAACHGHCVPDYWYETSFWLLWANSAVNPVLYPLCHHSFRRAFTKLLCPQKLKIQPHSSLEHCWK
Description: PDSP Primary Binding target: HRH3 - Compounds are tested at 10 uM concentration, plate are incubated at room temperature in the dark for 90 minutes. Reaction are stopped by vacuum filtration onto 0.3% polyethyleneimine soaked filter mats using Filtermate harvester. Scintilation cocktail is then melted onto microwave-dried filters on a hot plate and the radio activity is counted in Microbia counter.

[4] = biological target: Muscarinic acetylcholine receptor M3 (Homo sapiens) (UniProt P20309)
Muscarinic acetylcholine receptor M3 (Homo sapiens), sequence (P20309 whole entry, looked up): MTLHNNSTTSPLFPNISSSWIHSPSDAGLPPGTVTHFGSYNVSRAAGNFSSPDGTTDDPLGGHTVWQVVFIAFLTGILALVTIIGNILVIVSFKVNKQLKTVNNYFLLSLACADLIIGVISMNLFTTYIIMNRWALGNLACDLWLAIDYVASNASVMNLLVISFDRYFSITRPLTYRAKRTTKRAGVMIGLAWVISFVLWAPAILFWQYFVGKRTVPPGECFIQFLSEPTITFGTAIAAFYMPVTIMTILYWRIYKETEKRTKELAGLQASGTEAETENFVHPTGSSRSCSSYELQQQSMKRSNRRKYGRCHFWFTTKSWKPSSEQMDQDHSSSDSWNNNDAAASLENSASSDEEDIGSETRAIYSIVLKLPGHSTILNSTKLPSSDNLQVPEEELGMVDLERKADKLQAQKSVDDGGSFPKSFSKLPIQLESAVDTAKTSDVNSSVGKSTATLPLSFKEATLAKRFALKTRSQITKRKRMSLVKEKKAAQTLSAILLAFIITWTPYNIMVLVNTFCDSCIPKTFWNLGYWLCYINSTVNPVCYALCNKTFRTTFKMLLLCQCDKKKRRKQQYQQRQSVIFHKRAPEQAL
Description: PDSP Primary Binding target: CHRM3 - Compounds are tested at 10 uM concentration, plate are incubated at room temperature in the dark for 90 minutes. Reaction are stopped by vacuum filtration onto 0.3% polyethyleneimine soaked filter mats using Filtermate harvester. Scintilation cocktail is then melted onto microwave-dried filters on a hot plate and the radio activity is counted in Microbia counter.

[5] = biological target: T2, Muscarinic acetylcholine receptor M2 (Homo sapiens) (UniProt P08172)
T2 sequence (whole entry): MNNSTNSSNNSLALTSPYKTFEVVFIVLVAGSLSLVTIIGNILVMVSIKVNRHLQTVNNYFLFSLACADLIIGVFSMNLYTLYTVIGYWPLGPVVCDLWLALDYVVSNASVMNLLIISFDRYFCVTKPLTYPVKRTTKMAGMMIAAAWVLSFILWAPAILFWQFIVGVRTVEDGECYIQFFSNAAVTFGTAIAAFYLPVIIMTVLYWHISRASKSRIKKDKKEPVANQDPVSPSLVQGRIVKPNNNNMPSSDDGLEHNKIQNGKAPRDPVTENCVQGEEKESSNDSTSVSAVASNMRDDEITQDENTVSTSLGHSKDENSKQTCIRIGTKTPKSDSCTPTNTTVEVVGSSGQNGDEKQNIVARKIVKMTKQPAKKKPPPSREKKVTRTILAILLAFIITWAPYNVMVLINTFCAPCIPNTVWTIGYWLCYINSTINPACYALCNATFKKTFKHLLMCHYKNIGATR
Description: PDSP Primary Binding target: CHRM2 - Compounds are tested at 10 uM concentration, plate are incubated at room temperature in the dark for 90 minutes. Reaction are stopped by vacuum filtration onto 0.3% polyethyleneimine soaked filter mats using Filtermate harvester. Scintilation cocktail is then melted onto microwave-dried filters on a hot plate and the radio activity is counted in Microbia counter.

[6] = biological target: D(3) dopamine receptor (Homo sapiens) (UniProt P35462)
D(3) dopamine receptor (Homo sapiens), sequence (P35462 whole entry): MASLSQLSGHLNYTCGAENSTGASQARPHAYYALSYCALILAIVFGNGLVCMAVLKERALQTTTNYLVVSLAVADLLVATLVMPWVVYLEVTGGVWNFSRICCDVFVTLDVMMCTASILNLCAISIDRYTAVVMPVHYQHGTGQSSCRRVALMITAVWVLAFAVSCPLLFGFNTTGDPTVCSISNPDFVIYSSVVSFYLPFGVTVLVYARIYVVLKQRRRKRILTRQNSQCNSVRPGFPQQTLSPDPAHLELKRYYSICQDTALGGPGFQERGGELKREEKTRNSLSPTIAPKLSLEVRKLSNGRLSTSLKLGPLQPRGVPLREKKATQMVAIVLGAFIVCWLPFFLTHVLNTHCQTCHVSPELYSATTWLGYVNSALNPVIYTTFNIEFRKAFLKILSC
Description: PDSP Primary Binding target: DRD3 - Compounds are tested at 10 uM concentration, plate are incubated at room temperature in the dark for 90 minutes. Reaction are stopped by vacuum filtration onto 0.3% polyethyleneimine soaked filter mats using Filtermate harvester. Scintilation cocktail is then melted onto microwave-dried filters on a hot plate and the radio activity is counted in Microbia counter.

[7] = biological target: T3, 5-hydroxytryptamine receptor 2C (Homo sapiens) (UniProt P28335)
T3 sequence (whole entry): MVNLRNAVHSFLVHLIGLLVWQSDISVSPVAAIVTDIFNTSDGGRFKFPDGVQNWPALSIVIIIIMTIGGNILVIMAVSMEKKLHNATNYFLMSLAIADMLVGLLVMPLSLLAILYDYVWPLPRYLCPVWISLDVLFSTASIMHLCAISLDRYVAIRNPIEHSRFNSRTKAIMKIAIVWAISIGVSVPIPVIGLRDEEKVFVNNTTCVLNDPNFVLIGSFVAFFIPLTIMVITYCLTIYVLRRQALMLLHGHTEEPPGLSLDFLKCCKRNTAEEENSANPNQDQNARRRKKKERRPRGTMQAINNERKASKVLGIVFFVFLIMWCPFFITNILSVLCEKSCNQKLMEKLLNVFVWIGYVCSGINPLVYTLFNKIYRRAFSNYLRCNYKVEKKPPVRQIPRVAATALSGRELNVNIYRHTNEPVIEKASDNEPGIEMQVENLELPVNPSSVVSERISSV
Description: PDSP Primary Binding target: HTR2C - Compounds are tested at 10 uM concentration, plate are incubated at room temperature in the dark for 90 minutes. Reaction are stopped by vacuum filtration onto 0.3% polyethyleneimine soaked filter mats using Filtermate harvester. Scintilation cocktail is then melted onto microwave-dried filters on a hot plate and the radio activity is counted in Microbia counter.

[8] = biological target: 5-hydroxytryptamine receptor 1E (Homo sapiens) (UniProt P28566)
5-hydroxytryptamine receptor 1E (Homo sapiens), sequence (P28566 whole entry): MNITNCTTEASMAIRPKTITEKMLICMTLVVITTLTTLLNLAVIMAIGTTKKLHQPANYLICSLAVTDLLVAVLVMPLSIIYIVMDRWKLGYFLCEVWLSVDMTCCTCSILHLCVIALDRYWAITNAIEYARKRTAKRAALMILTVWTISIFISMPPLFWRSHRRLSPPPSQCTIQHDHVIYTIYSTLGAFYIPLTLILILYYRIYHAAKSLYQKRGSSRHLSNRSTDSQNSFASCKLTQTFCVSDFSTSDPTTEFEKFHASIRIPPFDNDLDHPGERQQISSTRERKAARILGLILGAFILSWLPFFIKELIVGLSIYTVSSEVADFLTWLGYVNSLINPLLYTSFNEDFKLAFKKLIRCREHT
Description: PDSP Primary Binding target: HTR1E - Compounds are tested at 10 uM concentration, plate are incubated at room temperature in the dark for 90 minutes. Reaction are stopped by vacuum filtration onto 0.3% polyethyleneimine soaked filter mats using Filtermate harvester. Scintilation cocktail is then melted onto microwave-dried filters on a hot plate and the radio activity is counted in Microbia counter.

[9] = biological target: T4, Muscarinic acetylcholine receptor M1 (Homo sapiens) (UniProt P11229)
T4 sequence (whole entry): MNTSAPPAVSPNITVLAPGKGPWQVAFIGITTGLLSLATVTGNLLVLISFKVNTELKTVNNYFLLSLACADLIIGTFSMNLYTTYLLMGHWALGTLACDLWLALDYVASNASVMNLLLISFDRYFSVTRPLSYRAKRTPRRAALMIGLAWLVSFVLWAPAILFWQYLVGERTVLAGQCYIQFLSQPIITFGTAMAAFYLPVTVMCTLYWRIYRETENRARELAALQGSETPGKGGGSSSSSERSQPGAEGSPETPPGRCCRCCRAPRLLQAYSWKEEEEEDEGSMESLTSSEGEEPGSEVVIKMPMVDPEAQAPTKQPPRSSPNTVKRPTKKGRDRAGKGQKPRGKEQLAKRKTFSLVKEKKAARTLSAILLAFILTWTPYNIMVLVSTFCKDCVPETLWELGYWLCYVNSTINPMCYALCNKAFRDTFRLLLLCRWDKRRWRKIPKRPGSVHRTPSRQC
Description: PDSP Primary Binding target: CHRM1 - Compounds are tested at 10 uM concentration, plate are incubated at room temperature in the dark for 90 minutes. Reaction are stopped by vacuum filtration onto 0.3% polyethyleneimine soaked filter mats using Filtermate harvester. Scintilation cocktail is then melted onto microwave-dried filters on a hot plate and the radio activity is counted in Microbia counter.

[10] = biological target: Sigma intracellular receptor 2 (Homo sapiens) (UniProt Q5BJF2)
Sigma intracellular receptor 2 (Homo sapiens), sequence (Q5BJF2 whole entry): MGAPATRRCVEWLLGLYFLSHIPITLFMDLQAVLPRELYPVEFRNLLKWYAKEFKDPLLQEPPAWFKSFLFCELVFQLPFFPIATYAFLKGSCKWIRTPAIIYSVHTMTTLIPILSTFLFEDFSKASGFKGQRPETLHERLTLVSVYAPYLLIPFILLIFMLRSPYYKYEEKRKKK
Description: PDSP Primary Binding target: TMEM97 - Compounds are tested at 10 uM concentration, plate are incubated at room temperature in the dark for 90 minutes. Reaction are stopped by vacuum filtration onto 0.3% polyethyleneimine soaked filter mats using Filtermate harvester. Scintilation cocktail is then melted onto microwave-dried filters on a hot plate and the radio activity is counted in Microbia counter.

[11] = biological target: Histamine H2 receptor (Homo sapiens) (UniProt P25021)
Histamine H2 receptor (Homo sapiens), sequence (P25021 whole entry): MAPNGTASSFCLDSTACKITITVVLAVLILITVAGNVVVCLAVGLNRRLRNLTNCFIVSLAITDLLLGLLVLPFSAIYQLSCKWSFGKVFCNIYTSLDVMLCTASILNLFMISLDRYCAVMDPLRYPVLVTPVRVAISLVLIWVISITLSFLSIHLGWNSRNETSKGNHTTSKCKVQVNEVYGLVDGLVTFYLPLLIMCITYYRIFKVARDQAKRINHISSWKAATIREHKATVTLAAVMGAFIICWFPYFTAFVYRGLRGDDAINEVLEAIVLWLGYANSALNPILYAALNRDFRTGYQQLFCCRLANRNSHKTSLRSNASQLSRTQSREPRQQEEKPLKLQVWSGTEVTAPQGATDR
Description: PDSP Primary Binding target: HRH2 - Compounds are tested at 10 uM concentration, plate are incubated at room temperature in the dark for 90 minutes. Reaction are stopped by vacuum filtration onto 0.3% polyethyleneimine soaked filter mats using Filtermate harvester. Scintilation cocktail is then melted onto microwave-dried filters on a hot plate and the radio activity is counted in Microbia counter.

[12] = biological target: D(1A) dopamine receptor (Homo sapiens) (UniProt P21728)
D(1A) dopamine receptor (Homo sapiens), sequence (P21728 whole entry): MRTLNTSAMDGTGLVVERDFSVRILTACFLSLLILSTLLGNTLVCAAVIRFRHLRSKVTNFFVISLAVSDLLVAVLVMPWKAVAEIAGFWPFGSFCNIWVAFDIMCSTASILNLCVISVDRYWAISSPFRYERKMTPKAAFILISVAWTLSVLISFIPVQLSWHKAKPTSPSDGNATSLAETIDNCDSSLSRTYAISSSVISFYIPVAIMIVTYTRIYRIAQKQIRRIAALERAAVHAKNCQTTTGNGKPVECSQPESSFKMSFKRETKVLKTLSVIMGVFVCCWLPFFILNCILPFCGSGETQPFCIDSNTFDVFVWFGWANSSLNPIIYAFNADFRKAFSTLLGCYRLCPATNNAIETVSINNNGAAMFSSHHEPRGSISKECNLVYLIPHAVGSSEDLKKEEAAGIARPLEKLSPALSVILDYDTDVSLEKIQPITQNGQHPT
Description: PDSP Primary Binding target: DRD1 - Compounds are tested at 10 uM concentration, plate are incubated at room temperature in the dark for 90 minutes. Reaction are stopped by vacuum filtration onto 0.3% polyethyleneimine soaked filter mats using Filtermate harvester. Scintilation cocktail is then melted onto microwave-dried filters on a hot plate and the radio activity is counted in Microbia counter.

[13] = biological target: T5, Alpha-1D adrenergic receptor (Homo sapiens) (UniProt P25100)
T5 sequence (whole entry): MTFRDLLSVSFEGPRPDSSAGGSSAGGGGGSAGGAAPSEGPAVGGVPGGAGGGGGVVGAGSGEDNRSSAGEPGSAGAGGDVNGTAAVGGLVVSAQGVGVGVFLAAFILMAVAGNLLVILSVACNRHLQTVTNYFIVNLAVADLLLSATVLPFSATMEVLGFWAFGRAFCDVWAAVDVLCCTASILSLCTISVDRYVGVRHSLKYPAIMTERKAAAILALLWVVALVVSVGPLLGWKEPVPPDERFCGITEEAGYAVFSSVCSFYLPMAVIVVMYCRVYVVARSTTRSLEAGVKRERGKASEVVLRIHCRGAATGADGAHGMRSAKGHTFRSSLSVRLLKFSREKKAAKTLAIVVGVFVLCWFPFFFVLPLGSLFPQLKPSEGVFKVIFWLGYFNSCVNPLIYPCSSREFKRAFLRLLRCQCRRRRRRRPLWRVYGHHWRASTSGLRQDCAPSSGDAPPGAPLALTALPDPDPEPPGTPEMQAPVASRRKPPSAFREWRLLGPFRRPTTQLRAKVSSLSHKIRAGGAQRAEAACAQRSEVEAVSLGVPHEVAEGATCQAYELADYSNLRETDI
Description: PDSP Primary Binding target: ADRA1D - Compounds are tested at 10 uM concentration, plate are incubated at room temperature in the dark for 90 minutes. Reaction are stopped by vacuum filtration onto 0.3% polyethyleneimine soaked filter mats using Filtermate harvester. Scintilation cocktail is then melted onto microwave-dried filters on a hot plate and the radio activity is counted in Microbia counter.

D(2) dopamine receptor (Homo sapiens), sequence (P14416 whole entry): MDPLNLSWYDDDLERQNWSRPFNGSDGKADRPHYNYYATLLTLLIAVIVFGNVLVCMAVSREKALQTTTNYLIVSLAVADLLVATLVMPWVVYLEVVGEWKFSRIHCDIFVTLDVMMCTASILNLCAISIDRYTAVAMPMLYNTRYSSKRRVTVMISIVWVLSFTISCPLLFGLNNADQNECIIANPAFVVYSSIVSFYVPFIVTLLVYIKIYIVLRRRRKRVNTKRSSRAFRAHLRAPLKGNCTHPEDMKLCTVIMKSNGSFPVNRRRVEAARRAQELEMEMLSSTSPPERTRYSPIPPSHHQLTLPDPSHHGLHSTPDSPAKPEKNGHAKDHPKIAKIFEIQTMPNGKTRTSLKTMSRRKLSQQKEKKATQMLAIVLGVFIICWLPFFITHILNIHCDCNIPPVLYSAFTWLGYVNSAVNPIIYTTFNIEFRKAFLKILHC

Row | Structure (SMILES) | inhibition [1] [%] | inhibition [2] [%] | inhibition [3] [%] | inhibition [4] [%] | inhibition [5] [%] | inhibition [6] [%] | inhibition [7] [%] | inhibition [8] [%] | inhibition [9] [%] | inhibition [10] [%] | inhibition [11] [%] | inhibition [12] [%] | inhibition [13] [%]
1 | C[C@@H](NCCCc1cccc(C(F)(F)F)c1)c1cccc2ccccc12 | 25.8 | 38.5 | 18.1 | 25.8 | 42 | 94.4 | 72.6 | 18 | 17.6 | 95.5 | 62.1 | 8.33 | 28.2
2 | CN1C2CCC1CC(OC(c1ccc(F)cc1)c1ccc(F)cc1)C2 (centres undefined) | 67.8 | 98.7 | -0.82 | 95.9 | 111 | 79.5 | 92.9 | 14.3 | 94.5 | 100 | 86.9 | 83 | 91.5
3 | Clc1cccc(COc2cncc(N3CCNCC3)n2)c1 | 3.43 | 11.2 | 20.2 | 82.1 | 33.3 | 79.6 | 94.9 | 76 | 82 | 86.4 | 14.4 | 29.3 | 22.3
4 | COc1cccc([C@@H](C)NCCCc2ccccc2Cl)c1 | 43.9 | 24 | 26.7 | 0.89 | 7 | 85 | 91.8 | 4.34 | -0.51 | 96.3 | 72.6 | 12.6 | 20.3
5 | CCCCCNC(=N)N/N=C/c1c[nH]c2ccc(OC)cc12 | 67.3 | 53.9 | 19 | 7.96 | 38.2 | 70 | 92.8 | 20.5 | 19.6 | 94.2 | 23.9 | 47.1 | 55.8
6 | C[C@@H](NCCc1ccc(O)cc1)[C@@H](O)c1ccc(O)cc1 (relative stereo) | 23.8 | 7.01 | 0.59 | 18.1 | 3.91 | 34.6 | -0.38 | -0.11 | 24.4 | 58.1 | 8.2 | -9.44 | 0.11
7 | CCCCCNC(=O)NS(=O)(=O)c1cc([N+](=O)[O-])ccc1NC1CCCCC1 | 7.7 | -4 | 11.4 | 16.6 | -9.24 | 52.2 | 11.4 | 16.8 | -6.06 | 3.25 | -2.95 | -2.52 | 6.55
8 | COc1ccc(Br)cc1S(=O)(=O)NC(=O)/C=C/c1ccccc1Cc1ccc2ccccc2c1 | 29.3 | 17.8 | 5.89 | 12.9 | 40.7 | 64.7 | 26.2 | 1.84 | 4.85 | 5.53 | 16 | -4.59 | 16.2
